{"source": "patent US20210180138A1", "about": "“METHODS FOR PROGNOSIS AND TREATMENT OF SOLID TUMORS” (CUREWIZE HEALTH LTD., priority 2017, published 2021)", "key": {"[1]": {"tested_on": "prostate cancer (PC-3) cell line", "test": "Cell viability, XTT tetrazolium colorimetric assay", "format": "cell-based", "details": "24 hours, 1 nM, 10 nM and 100 nM, vs DMSO control", "description": "(§1) FK866 is a potent NAMPT inhibitor that causes the depletion of intracellular NAD+ levels in the cell and ultimately induces apoptosis and cell death. To characterize the effect of FK866 on prostate cancer (PC-3), colon cancer (Caco-2) and breast cancer (MCF7) cell lines, the effects of FK866 on cell death were evaluated. Cells were either control cells, treated with DMSO only, or were treated for 24 hours with 1 nanomolar (nM), 10 nM and 100 nM of FK866, and cell viability was measured using an XTT tetrazolium colorimetric assay."}, "[2]": {"tested_on": "breast cancer (MCF7) cell line", "test": "Cell viability, XTT tetrazolium colorimetric assay", "format": "cell-based", "details": "24 hours, 1 nM, 10 nM and 100 nM, vs DMSO control", "description": "as §1"}, "[3]": {"tested_on": "colon cancer (Caco-2) cell line", "test": "Cell viability, XTT tetrazolium colorimetric assay", "format": "cell-based", "details": "24 hours, 1 nM, 10 nM and 100 nM, vs DMSO control", "description": "as §1"}, "[4]": {"tested_on": "prostate cancer PC3 cell line", "test": "In-vivo xenograft model, sensitivity to FK866 by miR-451 expression", "design": "species or system mice", "details": "for change in tumor growth between non-treated and treated group: 15 mg/kg once a day for 5 days repeated weekly", "description": "The effect of miR-451 expression levels on efficacy of NAMPT inhibitor was evaluated in an in-vivo xenograft mouse model as in Example 4A. The sensitivity of each prostate cancer cell line (miR-451, antagomiR-451 and scramble miR control) to FK866 treatment was examined in vivo. Twenty mice were injected with each cell line and were divided into two groups: 10 mice were treated with FK866 (15 mg/kg) once a day for 5 days repeated weekly and 10 served as controls, in which no NAMPT inhibitor was injected. The volume of the tumors was measured daily and mice were treated with FK866 from the day all tumors were clinically evident. Treatment with the drug started from day 13 and within 5 days of treatment a change in tumor size was observed between the antagomiR-451 group treated with FK866 and the antagomiR-451 receiving no treatment (FIG. 5A)."}, "MCF7 cells": {"tested_on": "MCF7 cells", "test": "In-vivo xenograft model, tumor growth by miR-451 expression", "details": "MCF7 xenograft in NSG mice; end of experiment; antagomiR-451 cells compared with miR-451 mimic", "description": "(§2) The effect of miR-451 expression levels on tumor cell growth was evaluated in an in-vivo xenograft mice model using MCF7 cells and PC3 cells. Ten million cells harboring antagomiR-451 and miR-451 mimic were injected subcutaneously into the right flanks of 6-8 weeks-old immunodeficient NSG (NOD scid gamma) mice. Ten mice were injected with the MCF7 antagomiR-451 cell line and 11 mice were injected with the miR-451 mimic line. Ten mice were injected with the PC3 antagomiR-451 cell line and the PC3 miR-451 mimic cell line and 8 with the scrambled miR control cell line. The volume of the tumors was measured daily from the day the tumors were clinically evident in all mice."}, "PC3 cells": {"tested_on": "PC3 cells", "test": "In-vivo xenograft model, tumor growth by miR-451 expression", "details": "PC3 xenograft in NSG mice; end of experiment; antagomiR-451 cells compared with miR-451 mimic", "description": "as §2"}, "miR-451 [5]": {"tested_on": "miR-451", "test": "miR-451 expression by RT-qPCR in stable transfected lines", "format": "cell-based", "description": "The effect of miR-451 expression level on prostate cancer (PC-3), and breast cancer (MCF7) cell line tumor cells was evaluated in-vitro. Stable lines of each malignancy expressing miR-451 mimic and antagomiR-451 were obtained and transfected as in example 1. miR-451 expression levels in each cell line were validated by quantitative Real Time PCR (RT-qPCR). Total RNA was isolated from 10^7 cells using Qiagen RNeasy isolation kit according to the manufacturer's instruction (Qiagen, Hilden, Germany). 100 ng RNA was converted to cDNA using universal cDNA synthesis kit (Exiqon, Vedbaek, Denmark). RT-qPCR for the miR-451 was performed using Locked-nucleic Acid (LNA™) primers sets (Exiqon, Vedbaek, Denmark). 5S Ribosomal RNA was used as a reference gene. The RT-qPCR reactions were performed in duplicates on the LightCycler 480 (Roche, Rotkreuz, Switzerland) apparatus. The results were expressed as relative expression using the delta Ct method."}, "NAMPT": {"tested_on": "NAMPT", "test": "NAMPT protein expression by FACS in transfected cells", "format": "cell-based", "details": "PC-3, Caco-2 and MCF7 cell lines; 48 hours after transfection; compared to control scramble-miR cells", "description": "(§3) A study was performed to determine if NAMPT is regulated by miR-451 in a representative cell line of each malignancy. Cells comprising prostate cancer (PC-3), colon cancer (Caco-2) and breast cancer (MCF7) cell lines were transiently transfected with a miR-451 mimic while “scrambled” miR-451 served as a control. The prostate cancer (PC-3), colon cancer (Caco-2), and breast cancer (MCF7) cells were obtained from ATCC and cultured according to ATCC growth recommendation. Two hundred pmol miR-451 mimic and 200 pmol scramble miR (IDT, Jerusalem, Israel) were transiently transfected by JETPRIME (Polyplus-transfection) into cells according to manufacturer's instructions.\nOne to two million transfected cells were collected 48 hours after transfection and fixed using 500 μl BD phosflow fix buffer I (BD Biosciences, San Jose, Calif., USA) for 15 minutes. Then, pellets were washed twice using PBS and resuspended in 500 μl methanol. Samples were incubated for 2 hours in −20° C. […] The cells were analyzed on flow cytometer (FACSCalibur, Becton Dickinson, Le Pont-De-Claix, France) using BD CellQuest™ Pro software.\nFIG. 1 presents NAMPT protein expression level analyzed by FACS using a specific anti-NAMPT antibody in prostate cancer (PC-3), colon cancer (Caco-2) and breast cancer (MCF7) cell lines."}, "miR-451 [6]": {"tested_on": "miR-451", "test": "miR expression after transient transfection with miR-451 mimic", "format": "cell-based", "details": "PC-3, Caco-2, MCF7 cells transiently transfected, 200 pmol; compared to control cells transfected with scramble miR", "description": "as §3\nNAMPT protein expression was determined using FACS as follows: […]"}}, "data": [{"molecule": "O=C(/C=C/c1cccnc1)NCCCCC1CCN(C(=O)c2ccccc2)CC1", "note": "[FK866]", "values": [{"measurement": "cell viability", "setting": "[1]", "value": "gradual decrease in cell viability"}, {"measurement": "cell viability", "setting": "[2]", "value": "gradual decrease in cell viability"}, {"measurement": "cell viability", "setting": "[3]", "value": "gradual decrease in cell viability"}, {"measurement": "time of treatment until change in tumor size observed vs no treatment", "setting": "[4]; PC3 antagomiR-451 group, treatment started from day 13, 15 mg/kg", "value": "≤ 5", "unit": "days"}, {"measurement": "change in tumor growth between non-treated and treated group", "setting": "[4]; mice injected with PC3 antagomiR-451 cells", "value": "major change in tumor growth"}, {"measurement": "change in tumor growth between non-treated and treated group", "setting": "[4]; mice injected with PC3 miR-451 mimic cells", "value": "moderate to almost no change in tumor growth"}, {"measurement": "change in tumor growth between non-treated and treated group", "setting": "[4]; mice injected with PC3 scramble miR control cells", "value": "moderate to almost no change in tumor growth"}]}, {"molecule": "antagomiR-451: SEQ ID NO: 3 is the nucleotide sequence of antagomiR-451 (antisense AATGATCTGTAACGGTTT; listed as DNA, chemistry not given here)", "values": [{"measurement": "tumor volume", "setting": "MCF7 cells", "value": "significant increase in tumor volume"}, {"measurement": "tumor volume", "setting": "PC3 cells", "value": "significant increase in tumor volume"}, {"measurement": "decrease in miR-451 expression", "setting": "miR-451 [5]; PC3 cells, compared to PC3 control cells", "value": 67, "unit": "%"}]}, {"molecule": "miR-451 mimic: SEQ ID NO: 1 is the nucleotide sequence of miR-451 mimic (AAACCGUUACCAUUACUGAGUU; listed as RNA, chemistry not given here)", "values": [{"measurement": "NAMPT protein expression level", "setting": "NAMPT", "value": "reduction in NAMPT expression"}, {"measurement": "level in miR-451", "setting": "miR-451 [5]; MCF7 cells, mimic compared with MCF7 cells transfected with antagomiR-451", "value": "twice as high"}, {"measurement": "increase in miR-451 expression", "setting": "miR-451 [5]; PC3 cells, compared with control (PC3 cells transfected with miR scramble)", "value": "tenfold increase"}, {"measurement": "increase in the expression levels of the miR", "setting": "miR-451 [6]", "value": 3, "unit": "fold"}]}]}
